Results taken from PMC4356482 (Bioorganic & medicinal chemistry letters, 2011).

Assays:
Format in all cases: binding
[1] = molecular target: T1, fatty acid synthase I (FAS I) (Mycobacterium tuberculosis, UniProt P95029); test: STD-NMR, competition titration with PZA
[2] = molecular target: T1, fatty acid synthase I (FAS I); test: biochemical
[3] = molecular target: T1, fatty acid synthase I (FAS I); test: STD-NMR

Row | Structure (SMILES) | STD-NMR, competition titration with PZA [1] | also measured
1 | O=C(O)c1cnccn1 [POA, pyrazinoic acid] | although POA binds reversibly to Mtb FAS I it does not compete with PZA since PZA is apparently not displaced | 
2 | NC(=O)c1cnccn1 [PZA, Pyrazinamide] |  | Kd [2]: 70 to 123 µM
3 | NC(=O)C1=CN([C@@H]2O[C@H](COP(=O)(O)OP(=O)(O)OC[C@H]3O[C@@H](n4cnc5c(N)ncnc54)[C@H](OP(=O)(O)O)[C@@H]3O)[C@@H](O)[C@H]2O)C=CC1 [NADPH] | Consistent with the binding of NADPH to Mtb FAS I the intensity of the NADPH resonances increases. | 
4 | C/C=C/C/C=C/CCC(=O)[C@H]1O[C@H]1C(N)=O [Cerulenin] |  | STD-NMR (positive control, 350 μM cerulenin) [3]: displays signals corresponding to cerulenin resonances that are indicative of cerulenin binding to Mtb FAS I
